# In patent US20230113037A1 (Bayer Aktiengesellschaft, priority 2019, published 2023):
# Where “and” joins values, the source holds several entries; their conditions need not be identical. Identical values can stand only once. Like-named read-outs stand apart in the source and are kept apart here.
# What was measured:
# AHR [1] = target: T1, AHR (Homo sapiens, UniProt P35869); assay: In vitro assay 1: antagonism in human cell line (AHR transactivation, firefly luciferase reporter, kynurenic acid prestimulated); format: cell-based; settings: AHR Antagonism Human IC50 [M]
# T1 construct: U87 MG glioblastoma cells (ATCC #HTB-14) endogenously expressing AHR; endogenous in cells; host or cells: U87 MG glioblastoma cells (ATCC #HTB-14)
# T1 sequence (P35869 11-848): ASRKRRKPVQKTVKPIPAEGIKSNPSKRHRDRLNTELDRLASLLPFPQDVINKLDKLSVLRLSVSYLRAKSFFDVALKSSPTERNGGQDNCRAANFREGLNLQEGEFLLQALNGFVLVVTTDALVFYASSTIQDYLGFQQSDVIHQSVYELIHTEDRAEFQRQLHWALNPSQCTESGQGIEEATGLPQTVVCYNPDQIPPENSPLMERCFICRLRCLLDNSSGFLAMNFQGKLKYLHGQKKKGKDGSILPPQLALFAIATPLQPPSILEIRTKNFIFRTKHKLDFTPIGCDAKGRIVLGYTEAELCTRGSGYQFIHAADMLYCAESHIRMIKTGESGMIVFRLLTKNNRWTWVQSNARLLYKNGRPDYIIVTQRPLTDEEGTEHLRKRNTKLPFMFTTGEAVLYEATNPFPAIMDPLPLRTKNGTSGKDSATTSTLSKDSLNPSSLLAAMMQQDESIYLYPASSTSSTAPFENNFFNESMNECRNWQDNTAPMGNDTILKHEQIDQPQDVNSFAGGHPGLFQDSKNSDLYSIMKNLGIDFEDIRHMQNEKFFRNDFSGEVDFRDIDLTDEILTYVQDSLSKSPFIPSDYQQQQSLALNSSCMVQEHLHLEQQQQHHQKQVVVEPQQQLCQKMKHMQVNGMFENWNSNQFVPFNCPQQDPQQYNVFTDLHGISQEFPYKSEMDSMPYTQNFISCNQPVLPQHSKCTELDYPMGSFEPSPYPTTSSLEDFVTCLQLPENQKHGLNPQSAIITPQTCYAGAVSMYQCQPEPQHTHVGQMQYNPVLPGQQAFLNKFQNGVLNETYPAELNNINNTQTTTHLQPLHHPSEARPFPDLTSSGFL
# Protocol: Examples were tested in selected biological assays one or more times. When tested more than once, data are reported as either average values or as median values, wherein • the average value, also referred to as the arithmetic mean value, represents the sum of the values obtained divided by the number of times tested, and • the median value represents the middle number of the group of values when ranked in ascending or descending order. If the number of values in the data set is odd, the median is the middle value. If the number of values in the data set is even, the median is the arithmetic mean of the two middle values.
# Transactivation assays were carried out in U87 MG glioblastoma cells (ATCC #HTB-14) endogenously expressing AHR. In addition the cells were stably transfected with an AHR inducible firefly luciferase reporter gene construct that carried AHR-binding sites (DRE) in its promoter and a renilla reporter gene construct with constitutively active promoter. Kynurenic acid is an endogenous AHR activating ligand and was used to prestimulate test cells prior to testing the antagonistic properties of compounds.
# As positive inhibition control cells supplemented with 150 μM kynurenic acid were incubated in presence of 5 μM Staurosporin. Normalization was done by positive and negative controls.
# Firefly luciferase and Renilla activity was determined by the DualGlo Luciferase Assay System (Promega, #2920). Renilla activity was used to assess toxic effects of compounds.
# AHR [2] = target: T2, AHR (Mus musculus, UniProt P30561); assay: In vitro assay 3: antagonism in mouse cell line (AHR transactivation, firefly luciferase reporter, kynurenic acid prestimulated); format: cell-based
# T2 sequence (P30561 1-848 P471L/N533S/M589L): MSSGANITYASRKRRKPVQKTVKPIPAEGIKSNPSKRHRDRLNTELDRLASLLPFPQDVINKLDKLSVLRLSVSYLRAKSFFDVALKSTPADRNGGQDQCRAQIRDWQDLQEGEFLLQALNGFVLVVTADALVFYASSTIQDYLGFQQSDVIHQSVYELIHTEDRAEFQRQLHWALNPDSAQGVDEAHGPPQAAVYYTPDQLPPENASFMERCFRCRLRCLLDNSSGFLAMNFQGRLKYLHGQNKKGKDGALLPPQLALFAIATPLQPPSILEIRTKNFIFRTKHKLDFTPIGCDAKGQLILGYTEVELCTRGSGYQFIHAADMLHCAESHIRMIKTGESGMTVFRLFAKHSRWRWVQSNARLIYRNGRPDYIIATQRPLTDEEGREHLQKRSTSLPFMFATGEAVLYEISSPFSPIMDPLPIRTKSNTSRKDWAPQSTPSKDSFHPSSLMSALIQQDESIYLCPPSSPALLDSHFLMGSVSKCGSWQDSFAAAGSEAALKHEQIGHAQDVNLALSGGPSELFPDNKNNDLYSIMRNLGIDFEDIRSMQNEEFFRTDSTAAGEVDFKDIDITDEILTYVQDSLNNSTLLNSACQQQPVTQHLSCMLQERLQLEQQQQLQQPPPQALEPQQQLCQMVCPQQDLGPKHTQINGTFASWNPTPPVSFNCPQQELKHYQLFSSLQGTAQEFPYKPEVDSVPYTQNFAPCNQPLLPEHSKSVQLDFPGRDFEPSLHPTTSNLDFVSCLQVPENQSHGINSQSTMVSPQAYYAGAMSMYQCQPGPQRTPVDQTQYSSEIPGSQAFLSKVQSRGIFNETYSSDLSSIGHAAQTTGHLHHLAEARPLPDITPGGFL
# Method in brief: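 Mouse cells stably carrying a DRE-driven, AHR-inducible firefly luciferase reporter were prestimulated with the endogenous agonist kynurenic acid before compound addition. Luciferase activity was measured by luminescence and normalized to positive and negative controls, with cells lacking kynurenic acid serving as full-inhibition control. Repeat tests are reported as mean or median.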
# [3] = mouse Hepa 1c1c7 cells, 200 μM kynurenic acid, 20 hours, read-out: AHR Antagonism Mouse IC50
SMILES,IC50 (AHR [1]),IC50 (AHR [2]; [3]),"IC50 (AHR [2]; read-out: AHR Antagonism Mouse IC50, mouse Hepa 1c1c7 cells, 200 μM kynurenic acid, 20 hours)"
"Cn1cc(-c2nc3c4ccccc4nc(NC4CNCCNC4=O)n3n2)cn1 (racemic) [Example 22, 6-{[2-(1-methyl-1H-pyrazol-4-yl)[1,2,4]triazolo[1,5-c]quinazolin-5-yl]amino}-1,4-diazepan-5-one]",5.33e-06 M,2030 nM,
"CCCC[C@H](Nc1nc2ccccc2c2nc(-c3cccc(OC(F)(F)F)c3)nn12)C(N)=O (racemic) [Example 322, N^2-{2-[3-(trifluoromethoxy)phenyl][1,2,4]triazolo[1,5-c]quinazolin-5-yl}-norleucinamide]",6.42e-08 M,,35.7 nM
"Cn1cc(-c2nc3c4cccc(C(F)(F)F)c4nc(NC4C(=O)NCC4(C)C)n3n2)cn1 (racemic) [Example 728, (+/−)-4,4-dimethyl-3-{[2-(1-methyl-1H-pyrazol-4-yl)-7-(trifluoromethyl)[1,2,4]triazolo[1,5-c]quinazolin-5-yl]amino}pyrrolidin-2-one]",> 2e-05 M,446 nM,
"Cn1cc(-c2nc3c4ccccc4nc(NC4CCNC4=O)n3n2)cn1 (single isomer, unassigned) [Example 18, 3-{[2-(1-methyl-1H-pyrazol-4-yl)[1,2,4]triazolo[1,5-c]quinazolin-5-yl]amino}pyrrolidin-2-one]",1.11e-06 M,2220 nM,
"Cn1cc(-c2nc3c4ccccc4nc(NC4CCCNC4=O)n3n2)cn1 (single isomer, unassigned) [Example 20, 3-{[2-(1-methyl-1H-pyrazol-4-yl)[1,2,4]triazolo[1,5-c]quinazolin-5-yl]amino}piperidin-2-one]",1.24e-06 M,2210 nM,
"Cn1cc(-c2nc3c4ccccc4nc(NC4CCCNC4=O)n3n2)cn1 (single isomer, unassigned) [Example 21, 3-{[2-(1-methyl-1H-pyrazol-4-yl)[1,2,4]triazolo[1,5-c]quinazolin-5-yl]amino}piperidin-2-one]",1.29e-05 M,> 20000 nM and 19700 nM,
"Cn1cc(-c2nc3c4ccccc4nc(NC4CNCCNC4=O)n3n2)cn1 (single isomer, unassigned) [Example 23, 6-{[2-(1-methyl-1H-pyrazol-4-yl)[1,2,4]triazolo[1,5-c]quinazolin-5-yl]amino}-1,4-diazepan-5-one]",> 2e-05 M and 1.65e-05 M,3380 nM,
"COc1ccc(-c2nc3c4ccccc4nc(NC4CNCCNC4=O)n3n2)cc1 (single isomer, unassigned) [Example 35, 6-{[2-(4-methoxyphenyl)[1,2,4]triazolo[1,5-c]quinazolin-5-yl]amino}-1,4-diazepan-5-one]",1.55e-06 M,60.4 nM,
"COc1ccc(-c2nc3c4ccccc4nc(NC4CNCCNC4=O)n3n2)cc1 (single isomer, unassigned) [Example 36, 6-{[2-(4-methoxyphenyl)[1,2,4]triazolo[1,5-c]quinazolin-5-yl]amino}-1,4-diazepan-5-one]",8.01e-09 M,29.4 nM,
"COc1ccc(-c2nc3c4ccccc4nc(NC4CCCNC4=O)n3n2)cc1 (single isomer, unassigned) [Example 38, 3-{[2-(4-methoxyphenyl)[1,2,4]triazolo[1,5-c]quinazolin-5-yl]amino}piperidin-2-one]",1.94e-08 M,69.8 nM,
"Cc1ccccc1-c1nc2c3ccccc3nc(NC3CNCCNC3=O)n2n1 (single isomer, unassigned) [Example 46, 6-{[2-(2-methylphenyl)[1,2,4]triazolo[1,5-c]quinazolin-5-yl]amino}-1,4-diazepan-5-one]",2.93e-08 M,5.25 nM,
"Cc1ccccc1-c1nc2c3ccccc3nc(NC3CNCCNC3=O)n2n1 (single isomer, unassigned) [Example 47, 6-{[2-(2-methylphenyl)[1,2,4]triazolo[1,5-c]quinazolin-5-yl]amino}-1,4-diazepan-5-one]",1.86e-08 M,27.9 nM,
"Cc1ccccc1-c1nc2c3ccccc3nc(NC3CCCNC3=O)n2n1 (single isomer, unassigned) [Example 48, 3-{[2-(2-methylphenyl)[1,2,4]triazolo[1,5-c]quinazolin-5-yl]amino}piperidin-2-one]",3.2e-08 M,62 nM,
"Cc1ccccc1-c1nc2c3ccccc3nc(NC3CCCNC3=O)n2n1 (single isomer, unassigned) [Example 49, 3-{[2-(2-methylphenyl)[1,2,4]triazolo[1,5-c]quinazolin-5-yl]amino}piperidin-2-one]",8.5e-08 M,26.1 nM,
"Cc1ccccc1-c1nc2c3ccccc3nc(NC3CCNC3=O)n2n1 (single isomer, unassigned) [Example 50, 3-{[2-(2-methylphenyl)[1,2,4]triazolo[1,5-c]quinazolin-5-yl]amino}pyrrolidin-2-one]",1.06e-08 M,20.4 nM,
"Cc1ccccc1-c1nc2c3ccccc3nc(NC3CCNC3=O)n2n1 (single isomer, unassigned) [Example 51, 3-{[2-(2-methylphenyl)[1,2,4]triazolo[1,5-c]quinazolin-5-yl]amino}pyrrolidin-2-one]",3.09e-08 M,131 nM,
"COc1cccc(-c2nc3c4ccccc4nc(N[C@@H](C)C(N)=O)n3n2)c1 (single isomer, unassigned) [Example 86, N^2-[2-(3-methoxyphenyl)[1,2,4]triazolo[1,5-c]quinazolin-5-yl]alaninamide]",5.1e-09 M,5.66 nM,
"COc1cccc(-c2nc3c4ccccc4nc(NC4CNCCNC4=O)n3n2)c1 (single isomer, unassigned) [Example 116, 6-{[2-(3-methoxyphenyl)[1,2,4]triazolo[1,5-c]quinazolin-5-yl]amino}-1,4-diazepan-5-one]",2.75e-06 M,73.3 nM,
"COc1cccc(-c2nc3c4ccccc4nc(NC4CNCCNC4=O)n3n2)c1 (single isomer, unassigned) [Example 117, 6-{[2-(3-methoxyphenyl)[1,2,4]triazolo[1,5-c]quinazolin-5-yl]amino}-1,4-diazepan-5-one]",9.04e-08 M,76.5 nM,
"COc1cccc(-c2nc3c4ccccc4nc(NC4CCCNC4=O)n3n2)c1 (single isomer, unassigned) [Example 118, 3-{[2-(3-methoxyphenyl)[1,2,4]triazolo[1,5-c]quinazolin-5-yl]amino}piperidin-2-one]",6.43e-08 M,40.2 nM,
